Columns and labels:
in vivo = conditions: rat
Protocol: Experiments were performed with rats wherein each animal received an aqueous microenema applied to the rectal cavity. The microenemas contained target drug entity (amount shown in table) in the presence or absence of 5 mg lauroylcholine chloride or palmitoylcholine iodide. Blood levels were monitored and the amount of drug absoreed calculated against intravenous administration and expressed as percent bioavailability.
The amount of drug absorbed is expressed as percent bioavailability versus intravenous administration
Blood was collected and sodium cefoxitin measured. Absorption of sodium cefoxitin is expressed as percent bioavailability versus intravenous administration.

[1] = Small intestinal (duodenal) absorption from aqueous solution in rats, percent bioavailability versus intravenous administration; format: in vivo; conditions: vs intravenous
Protocol: Blood levels were monitored and the amount of polypeptide absorbed calculated against intravenous administration and expressed as percent bioavailability.
Experiments were performed as in Example 5. The solutions contained 10 mg/kg of cefoxitin and 20 mg/kg of absorption promoters. Blood levels of cefoxitin were monitored and the bioavailability of cefoxitin absorbed was calculated against intravenous administration.

## Nc1ccn([C@@H]2O[C@H](CO)[C@@H](O)[C@@H]2O)c(=O)n1 [Cytarabine]
In vivo
  Percent Bioavailability (mean ± SD) with Control: 0.5 ± 0.1%

## CO[C@@]1(NC(=O)Cc2cccs2)C(=O)N2C(C(=O)O)=C(COC(N)=O)CS[C@@H]21 [Sodium cefoxitin]
[1]; duodenal solution, 10 mg/kg cefoxitin alone
  Percent Bioavailability (mean ± SD) of cefoxitin, adjuvant None: 2 ± 1.1%
In vivo
  Percent Bioavailability (mean ± SD) with Control: 2 ± 1.1%
In vivo; pH 6
  Sodium Cefoxitin Percent Bioavailability (mean ± SD), compound None: 2 ± 1.1%

## Cn1c(=O)c2[nH]cnc2n(C)c1=O [Theophylline]
In vivo
  Absorption of the drug by itself: absorbed well by itself
  Percent Bioavailability (mean ± SD) with Control: 75 ± 3.3%

## CC(C)[C@@H]1NC(=O)[C@H](CCCCN)NC(=O)[C@@H](Cc2c[nH]c3ccccc23)NC(=O)[C@H](Cc2ccc(O)cc2)NC(=O)[C@H](C)N(C)C(=O)[C@H](Cc2ccccc2)NC1=O [cyclo(N--Me--Ala--Try--DTrp--Lys--Val--Phe)acetate]
[1]; rat, blood, aqueous solution applied to duodenal region, 0.1 mg polypeptide alone, read-out: Percent Bioavailability (mean ± SD), adjuvant None
  bioavailability: 1%
In vivo; Percent Bioavailability (mean ± SD) with Control
  bioavailability: 7 ± 3.5%
